Test: Inhibition of HCV genotype 1 polymerase
Set-up: species or system Hepacivirus hominis

Question: With CC(C)CCn1c(=O)c(C2=NS(=O)(=O)c3cc(NS(C)(=O)=O)ccc3N2)c(O)c2cccnc21 as the molecule, how does the IC50 read?
Answer: The IC50 was 2 nM.

Question: Which IC50 does the source give for O=c1c(C2=NS(=O)(=O)c3cc(Br)ccc3N2)c(O)c2cccnc2n1Cc1ccccc1 here?
Answer: Its IC50 is 16800 nM.

Question: Which IC50 does the source give for CCCCNn1c(=O)c(C2=NS(=O)(=O)c3ccccc3N2)c(O)c2ccccc21 here?
Answer: Its IC50 is 951 nM.

Question: Which IC50 does the source give for O=c1c(C2=NS(=O)(=O)c3ccccc3N2)c(O)c2ccccc2n1NCc1ccc(Br)cc1 here?
Answer: The IC50 was 10400 nM.

Question: For CC(C)CCn1c(=O)c(C2=NS(=O)(=O)c3cc(NS(=O)(=O)NC(=O)OCCC#N)ccc3N2)c(O)c2cccnc21, which IC50 is on record?
Answer: The IC50 was 35 nM.

Question: For CNC(=O)c1ccc(NS(=O)(=O)Nc2ccc3c(c2)S(=O)(=O)N=C(c2c(O)c4cccnc4n(CCC(C)C)c2=O)N3)cc1, which IC50 is on record?
Answer: Its IC50 is 43 nM.

Question: With COCCOC(=O)NS(=O)(=O)Nc1ccc2c(c1)S(=O)(=O)NC(c1c(O)c3cccnc3n(CCC(C)C)c1=O)=N2 as the molecule, how does the IC50 read?
Answer: The IC50 was 87 nM.

Question: With O=c1c(C2=NS(=O)(=O)c3ccccc3N2)c(O)c2ccccc2n1NCc1ccc(Cl)s1 as the molecule, how does the IC50 read?
Answer: The IC50 was 4780 nM.

Question: For CC(C)CCn1c(=O)c(C2=NS(=O)(=O)c3cc(NS(=O)(=O)c4ccccc4)ccc3N2)c(O)c2cccnc21, which IC50 is on record?
Answer: Its IC50 is 41 nM.

Question: With O=c1c(C2=NS(=O)(=O)c3ccccc3N2)c(O)c2ccccc2n1NCc1ccccc1 as the molecule, how does the IC50 read?
Answer: The IC50 was 5090 nM.

Question: Which IC50 does the source give for O=c1c(C2=NS(=O)(=O)c3ccccc3N2)c(O)c2ccccc2n1NCc1cccs1 here?
Answer: The IC50 was 2330 nM.

Question: With CC(C)CCn1c(=O)c(C2=NS(=O)(=O)c3cc(NS(=O)(=O)Nc4cccc(C(N)=O)c4)ccc3N2)c(O)c2cccnc21 as the molecule, how does the IC50 read?
Answer: The IC50 was 43 nM.

Question: With O=c1c(C2=NS(=O)(=O)c3ccccc3N2)c(O)c2ccccc2n1NCC1CCC1 as the molecule, how does the IC50 read?
Answer: Its IC50 is 278 nM.

Question: With O=c1c(C2=NS(=O)(=O)c3ccccc3N2)c(O)c2cccnc2n1Cc1ccccc1 as the molecule, how does the IC50 read?
Answer: The IC50 was 5800 nM.

Source: ChEMBL document CHEMBL1137511, “Identification of a series of novel derivatives as potent HCV inhibitors by a ligand-based virtual screening optimized procedure” (Bioorg Med Chem, 2007)
